According to patent publication US20060166319A1 (priority 2004, published 2006):

What was measured:
[1] = NMR H/D exchange studies; assay type: physicochemical; settings: rt
Protocol: Compound 7 (˜4 mg, ˜10 μmol) was dissolved in CD3OD (0.75 mL), and D2O (2 drops) was added. The reaction mixture was kept at rt and monitored by NMR (400 MHz). […] NaOD (30% w/w in D2O, 2 drops) was then added, and the solution monitored by NMR. […] After 25 h, the C5 proton peak completely disappeared.
To rule out the possibility that the loss of the C5 proton peak was due to decomposition, the resulting mixture was evaporated at rt under reduce pressure, and the residue was redissolved in CH3OH and allowed to stir for 1 day. The mixture was then evaporated to dryness in vacuo, and redissolved in CD3OD. The NMR spectrum was quickly taken, and the C5 proton peak was again observed. As before, the C5 proton peak slowly disappeared over a 1-day period.
To evaluate the importance of the imine bond on the acidity of the C5 proton, proline was dissolved in 0.75 mL CD3OD and 0.20 mL D2O and treated with […].

[2] = Stability studies of compound 8 to NaOH, LiOH and TFA (TLC); assay type: physicochemical; settings: rt
Protocol: Stability Studies of Compound (8) to NaOH. NaOH (6 M, 20 μL, 0.12 mmol) was added to a solution of compound 8 (0.15 M, 100 μL, 0.015 mmol). The resulting mixture was allowed to react at rt over 3 days, during which the degradation of compound 8 was monitored by a ninhydrin TLC assay (CHCl3-MeOH—NH4OH(aq)=2:2:1).
Stability Studies of Compound (8) to LiOH. Compound 8 (21.9 mg, 84 μmol) was dissolved in water (2 mL) and LiOH.H2O (84.5 mg, 2.0 mmol) was added. This mixture was allowed to react at rt. While initially only starting material was observed by TLC (MeOH-EtOAc=4:1, Rf=0.26), after 24 h two new bands (Rf=0.10, 0.02) appeared. After 5 days, the solution was evaporated to dryness at rt, redissolved in MeOH (0.5 mL), and purified on chromatography silica gel. […] The other new band appears to be a mixture of species based on its NMR and MS data.
Stability Studies of Compound (8) to TFA. Compound 8 (21.7 mg, 0.083 mmol) was dissolved in MeOH (2 mL) and TFA (200 μL) was added. After 1 h, one new band (MeOH-EtOAc=2:1; Rf=0.22) was observed by TLC. The mixture was allowed to react to completion for 2 days at rt. The resulting mixture was evaporated to dryness, dissolved in MeOH (0.5 mL), and subjected to chromatography on silica gel. […] The peak for the C2 imine proton is absent, and the peak for the C5 proton is either absent or shifted.

[3] = target: T1, PylS-His6 (Methanosarcina barkeri, UniProt Q6WRH6); experiment: Pyrrolysine dependent pyrophosphate:ATP exchange; assay type: biochemical; design: apparent Vmax: unit not given here
T1 construct: made in house; host or cells: E. coli BL21 (DE3)
Protocol: As a prerequisite of tRNA aminoacylation, an aminoacyl-adenylate and pyrophosphate are formed from the amino acid and ATP by an aminoacyl-tRNA synthetase. This reversible activation reaction can be assayed by the isotopic exchange of ^32P-pyrophosphate into ATP dependent on the addition of the cognate amino acid for the aminoacyl-tRNA synthetase in question.
The pyrophosphate exchange reaction was essentially performed following the method of Cole and Schimmel. All reactions were performed in duplicate at 37° C. The 100 to 200 μl reactions contained (unless noted) 0.3 to 1 μM PylSHis6. […] The specific activity of the radiolabel was adjusted from 4 to 10 dpm/pmol). The concentration of protein was 0.3 to 1 μM. At specific times, 25 μl aliquots were removed and quenched in 500 μl of a stop solution containing 1.6% (w/v) activated acid-washed charcoal (Sigma Chemical Co., St. Louis, Mo.), 80 mM sodium tetrapyrophosphate, and 3.5% (v/v) perchloric acid. Samples were filtered through Whatman GF/C glass-fiber filters and then the filter was washed three times with 5 ml of 40 mM sodium tetrasodium pyrophosphate solution containing 1.7% perchloric acid (v/v) and once with 5 ml 100% ethanol. Filters were dried at 80° C. for 5 minutes then placed in 20 ml scintillation vials containing 10 ml of Ultima Gold F scintillation cocktail (PerkinElmer), shaken once, and counted in a liquid scintillation analyzer. Identical reactions without amino acid, ATP, or enzyme were also set up as negative controls in duplicate. […] One substrate was kept constant at a concentration higher than its respective apparent Km value.

[4] = system: E. coli BL21 (DE3) expressing pylT, pylS and mtmB1; experiment: Pyrrolysine-dependent amber suppression (mtmB1 UAG readthrough, anti-MtmB immunoblot); assay type: cell-based; settings: strain expressing pylT, 1 mM amino acid, 4 h induction
Text: As a reporter of UAG translation as a sense codon, we introduced the mtmB1 gene into E. coli BL21 (DE3). […] Plasmids were constructed bearing combinations of mtmB1, pylS and/or pylT under the control of the T7 promoter, and transformed into E. coli. […] Total cellular proteins from each strain were then separated by SDS-polyacrylamide-gel electrophoresis and mtmB1 gene products were detected by subsequent immunoblotting with polyclonal antibody specific for purified M. barkeri MtmB.
To test for amber suppression, overnight cultures were grown in Luria-Bertani broth (3 ml) with 100 μg ml^−1 ampicillin. Subsequently, 200 μl was inoculated into 1 ml fresh medium and grown to a D600 of 0.6. […] The mtmB1 gene products in equivalent amounts of lysates were then analysed by immunoblotting of a SDS 12.5% polyacrylamide gel with affinity-purified rabbit anti-MtmB antibody^6. The Rainbow Molecular Weight markers (Amersham Biosciences) were used.
To test for amber suppression, overnight cultures of a strain bearing one of the plasmids were grown in LB broth (3 mL) with 100 ug/ml final ampicillin. Subsequently, 200 μl of each culture was inoculated into 1 ml of fresh LB medium with ampicillin, and grown to an A600 of approximately 0.6. […]

[5] = target: T1, PylS-His6; experiment: Aminoacylation of tRNACUA in acid-urea gels (gel-shift, northern blot); assay type: biochemical; settings: for aminoacylation of tRNA^lys in the M. acetivorans tRNA pool: tRNA^lys instead of tRNACUA
Text: Recombinant PylS-His6 was purified by Ni affinity chromatography from lysates of Escherichia coli expressing the recombinant Methanosarcina barkeri pylS gene modified so as to add a carboxy-terminal hexahistidine tag to the gene product. The tRNA pool extracted from Methanosarcina acetivorans or tRNACUA transcribed in vitro was used in charging experiments. Charged and uncharged tRNA species were separated by electrophoresis in a denaturing acid-urea polyacrylamide gel and tRNACUA was specifically detected by northern blotting with an oligonucleotide probe.
The reaction was terminated after 5-30 min at 37° C. with an equal volume of 0.3 M sodium acetate, 8 M urea pH 5.0. Charged and uncharged tRNA were separated by acid-urea acrylamide gel electrophoresis, blotted to nitrocellulose and probed with a 5μ ^32P-end-labelled, 72-base oligonucleotide complementary to tRNA^CUA. Radioactivity was analysed with a STORM Phosphorimager (Amersham Biosciences).
(§1) Aminoacylation assay in acid-urea gels. […] Following incubation at 37° C. for 5 to 30 minutes, the reaction was terminated by addition of an equal volume of 2× loading dye (0.3 M sodium acetate, 8 M urea, pH 5.0) and charged and uncharged tRNA species analysed by acid-urea acrylamide gel electrophoresis following the methods outlined in Jester et al. Samples were electrophoresed in 14% polyacrylamide gels buffered with a 0.3 M sodium acetate-7 M urea solution, pH 5.0, at 50 volts and 4° C. for 24 hours. The same buffer without urea was used in the electrode chambers, and was replaced with fresh buffer every 6-8 hours. Finished gels were transblotted for 2 hours at 40 volts in 4° C. in a blotting solution of 10 mM Tris-acetate, 5 mM sodium acetate, and 0.5 mM EDTA, pH 8.0. The blot was then cross-linked by ultraviolet radiation (15000 μJ/cm2 per side) then prehybrized in 0.25 M sodium phosphate buffer, pH 7.2, and 5.7% SDS for at least 30 minutes. In order to detect charged and uncharged tRNACUA a 72 base oligonucleotide complementary to full length of tRNACUA was labeled with γ-^32P ATP and polynucleotide kinase. The probe was hybridized with the blot overnight at room temperature, then agitated at 22° C. for 5 minute in 10 mM sodium citrate, 150 mM NaCl, 1% SDS, pH 7.0, then agitated with two changes of 5 mM sodium citrate, 75 mM sodium chloride, 1% SDS, pH 7.0, for 5 minutes each. Radioactivity on the blot was imaged and analyzed using a STORM Phosphorimager (Amersham Biosciences).

[6] = target: T2, His6-PylS (Methanosarcina barkeri, UniProt Q6WRH6); experiment: Gel-shift aminoacylation assay with N-terminally His-tagged PylS; assay type: biochemical
T2 construct: made in house; host or cells: E. coli (inferred from the control with untransformed E. coli)
Protocol: as §1, with “The probe was hybridized with the blot overnight at room temperature, then agitated at 22° C. for 5 minute in 10 mM sodium citrate, 150 mM NaCl, 1% SDS, pH 7.0, then agitated with two changes of 5 mM sodium citrate, 75 mM sodium chloride, 1% SDS, pH 7.0, for 5 minutes each.” left out

[7] = system: E. coli BW25141(DE3) transformed with pDLGUS; experiment: beta-glucuronidase activity from uidA gene with UAG codon replacing AAA286; assay type: cell-based
Text: In order to avoid interference by the residue uidA gene, we employed a strain with most of uidA deleted, E. coli BW25141(DE3). This strain was transformed with pDLGUS, a variant of the pEC03 plasmid in which the mtmB1 gene was removed and the uidA gene introduced in its place.

T1 sequence (Q6WRH6 whole entry): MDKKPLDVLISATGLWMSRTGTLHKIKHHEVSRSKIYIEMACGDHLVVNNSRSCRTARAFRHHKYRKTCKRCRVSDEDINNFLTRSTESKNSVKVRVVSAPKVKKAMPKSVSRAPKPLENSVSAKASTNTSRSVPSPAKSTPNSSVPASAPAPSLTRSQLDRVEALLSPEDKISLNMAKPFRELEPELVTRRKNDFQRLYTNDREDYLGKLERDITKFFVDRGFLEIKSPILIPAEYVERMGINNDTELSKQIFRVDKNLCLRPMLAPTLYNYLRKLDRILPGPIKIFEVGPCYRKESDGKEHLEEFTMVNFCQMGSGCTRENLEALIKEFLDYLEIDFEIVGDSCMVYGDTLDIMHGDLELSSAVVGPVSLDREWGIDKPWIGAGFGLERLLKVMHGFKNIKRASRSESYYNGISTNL
T2 sequence (Q6WRH6 whole entry): as above

## COC(=O)[C@H](CCCCNC(=O)[C@@H]1N=CC[C@H]1C)NC(=O)C(F)(F)F [Compound 7, Nα-Trifluoroacetyl-L-pyrrolysine methyl ester]
[1]; CD3OD with D2O, 3-day period, no base
  change in NMR spectrum: No change was observed
[1]; CD3OD/D2O with NaOD
  time until C5 proton peak completely disappeared (H/D exchange): 25 h

## C[C@@H]1CC=N[C@H]1C(=O)NCCCC[C@H](N)C(=O)[O-].[Li+] [Compound 8, L-Pyrrolysine lithium salt]
[2]; LiOH in water, after 24 h
  degradation in LiOH observed by TLC: two new bands
[2]; NaOH 6 M 20 μL added to 0.15 M solution, over 3 days
  degradation in NaOH monitored by ninhydrin TLC: One new band
[2]; TFA in MeOH, after 1 h
  degradation in TFA observed by TLC: one new band

## NCCCC[C@H](N)C(=O)O [lysine, reference compound]
[3]; incubation as long as 30 min, canonical 20 amino acids each at 100 μM, or 1 mM lysine
  isotopic exchange into ATP above background: no detectable isotopic exchange
[4]
  UAG readthrough: expression of 50-kDa MtmB: could not be replaced
[5]; 20 canonical amino acids each at 50 μM, or only 50 μM lysine, no pyrrolysine
  formation of charged tRNACUA species: not formed
[5]
  aminoacylation of tRNA^lys in the M. acetivorans tRNA pool: does not aminoacylate
[6]
  lysyl- or pyrrolysyl-tRNA synthetase activity: no lysyl-tRNA synthetase activity was detectable

## C[C@@H]1CC=N[C@H]1C(=O)NCCCC[C@H](N)C(=O)O [pyrrolysine, lysine in amide linkage with (4R,5R)-4-methyl-pyrroline-5-carboxylate]
[3]; 37° C., pH 7.2, other substrate held constant, read-out: apparent Km
  Km: 53 µM
[3]; exchange reaction, 37° C.
  apparent Vmax: 120
[7]; 1 mM synthetic pyrrolysine versus absence of pyrrolysine
  increase of beta-glucuronidase activity: approximately 100 fold
[7]; induced with IPTG in the presence of 1 mM synthetic pyrrolysine
  beta-glucuronidase activity: 4. umol/min·mg protein
[4]
  UAG readthrough: expression of 50-kDa MtmB: large amounts of 50-kDa MtmB
[5]; deacylated M. acetivorans cellular tRNA pool, incubation with pyrrolysine, ATP and PylS-His6
  maximal conversion of deacylated tRNACUA to charged species: 50%
[5]; in vitro transcribed tRNACUA, synthetic pyrrolysine, ATP-dependent
  maximum of tRNACUA transcribed in vitro aminoacylated: 43%
[5]
  aminoacylation of tRNA^lys in the M. acetivorans tRNA pool: does not aminoacylate
[6]
  lysyl- or pyrrolysyl-tRNA synthetase activity: does have pyrrolysyl-tRNA synthetase activity
